Measurements taken from ChEMBL document CHEMBL1909046, “DrugMatrix in vitro pharmacology data”.

Legend:
[1] = DRUGMATRIX: Glutamate, AMPA radioligand binding (ligand: [3H] AMPA); assay type: cell membranes, Rattus norvegicus, Wistar, Cerebral cortex, Membrane; conditions: Not Active = under 50% inhibition at 10 µM
[2] = DRUGMATRIX: Leukotriene, BLT (LTB4) radioligand binding (ligand: [3H]LTB4); assay type: cell membranes, Membrane; conditions: u-937; Not Active = under 50% inhibition at 10 µM
[3] = target: T1, Muscarinic acetylcholine receptor M4 (Homo sapiens, UniProt P08173); assay type: cell membranes, CHO-K1, Membrane; further: in other assays of this panel Not Active means under 50% inhibition at 10 µM
T1 sequence (P08173 whole entry): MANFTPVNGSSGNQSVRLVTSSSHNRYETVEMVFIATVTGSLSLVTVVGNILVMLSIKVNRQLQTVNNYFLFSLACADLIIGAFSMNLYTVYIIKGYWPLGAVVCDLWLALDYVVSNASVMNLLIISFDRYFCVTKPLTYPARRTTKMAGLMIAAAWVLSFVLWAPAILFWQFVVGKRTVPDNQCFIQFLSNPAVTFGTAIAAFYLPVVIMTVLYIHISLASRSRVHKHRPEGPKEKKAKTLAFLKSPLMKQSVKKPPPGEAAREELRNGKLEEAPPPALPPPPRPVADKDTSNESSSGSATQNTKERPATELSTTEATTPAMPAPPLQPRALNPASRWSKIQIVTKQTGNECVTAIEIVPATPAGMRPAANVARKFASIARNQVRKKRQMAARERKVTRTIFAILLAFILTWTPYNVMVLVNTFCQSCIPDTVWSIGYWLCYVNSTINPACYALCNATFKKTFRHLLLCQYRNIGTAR

Cytochrome P450 2C9 = Cytochrome P450 2C9 (Homo sapiens, UniProt P11712); further: in other assays of this panel Not Active means under 50% inhibition at 10 µM
Cytochrome P450 2D6 = Cytochrome P450 2D6 (Homo sapiens, UniProt P10635); further: in other assays of this panel Not Active means under 50% inhibition at 10 µM
Cytochrome P450 3A4 = Cytochrome P450 3A4 (Homo sapiens, UniProt P08684); further: in other assays of this panel Not Active means under 50% inhibition at 10 µM
Androgen receptor = target: T2, Androgen receptor (Rattus norvegicus, UniProt P15207); further: in other assays of this panel Not Active means under 50% inhibition at 10 µM
T2 sequence (P15207 whole entry): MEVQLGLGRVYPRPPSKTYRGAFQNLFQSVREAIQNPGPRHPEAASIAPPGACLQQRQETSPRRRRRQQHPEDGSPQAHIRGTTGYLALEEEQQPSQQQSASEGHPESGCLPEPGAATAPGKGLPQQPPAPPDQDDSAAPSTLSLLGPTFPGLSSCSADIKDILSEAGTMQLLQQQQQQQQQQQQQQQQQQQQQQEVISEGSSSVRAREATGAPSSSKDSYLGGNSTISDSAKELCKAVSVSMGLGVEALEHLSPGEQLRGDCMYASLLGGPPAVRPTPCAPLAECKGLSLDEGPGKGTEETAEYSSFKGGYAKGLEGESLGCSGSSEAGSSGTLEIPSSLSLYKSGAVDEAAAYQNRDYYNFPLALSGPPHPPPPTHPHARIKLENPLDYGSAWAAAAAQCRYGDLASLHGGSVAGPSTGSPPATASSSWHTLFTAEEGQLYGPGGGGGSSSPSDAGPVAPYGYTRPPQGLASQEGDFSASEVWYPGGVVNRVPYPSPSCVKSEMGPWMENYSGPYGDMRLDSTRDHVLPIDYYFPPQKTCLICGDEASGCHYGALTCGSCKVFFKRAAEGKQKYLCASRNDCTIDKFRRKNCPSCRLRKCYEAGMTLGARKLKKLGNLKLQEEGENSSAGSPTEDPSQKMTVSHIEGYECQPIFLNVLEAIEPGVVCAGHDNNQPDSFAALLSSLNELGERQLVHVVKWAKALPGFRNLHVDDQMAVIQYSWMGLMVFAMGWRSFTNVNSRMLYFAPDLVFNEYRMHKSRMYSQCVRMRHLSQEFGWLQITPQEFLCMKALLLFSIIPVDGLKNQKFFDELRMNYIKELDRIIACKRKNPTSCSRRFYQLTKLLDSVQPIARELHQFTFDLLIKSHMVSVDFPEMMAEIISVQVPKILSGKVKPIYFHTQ

Cytochrome P450 2C19 = Cytochrome P450 2C19 (Homo sapiens, UniProt P33261); further: in other assays of this panel Not Active means under 50% inhibition at 10 µM
[4] = target: Voltage-gated inwardly rectifying potassium channel KCNH2 (Homo sapiens, UniProt Q12809); further: in other assays of this panel Not Active means under 50% inhibition at 10 µM
Chain of Voltage-gated inwardly rectifying potassium channel KCNH2 (Q12809 whole entry): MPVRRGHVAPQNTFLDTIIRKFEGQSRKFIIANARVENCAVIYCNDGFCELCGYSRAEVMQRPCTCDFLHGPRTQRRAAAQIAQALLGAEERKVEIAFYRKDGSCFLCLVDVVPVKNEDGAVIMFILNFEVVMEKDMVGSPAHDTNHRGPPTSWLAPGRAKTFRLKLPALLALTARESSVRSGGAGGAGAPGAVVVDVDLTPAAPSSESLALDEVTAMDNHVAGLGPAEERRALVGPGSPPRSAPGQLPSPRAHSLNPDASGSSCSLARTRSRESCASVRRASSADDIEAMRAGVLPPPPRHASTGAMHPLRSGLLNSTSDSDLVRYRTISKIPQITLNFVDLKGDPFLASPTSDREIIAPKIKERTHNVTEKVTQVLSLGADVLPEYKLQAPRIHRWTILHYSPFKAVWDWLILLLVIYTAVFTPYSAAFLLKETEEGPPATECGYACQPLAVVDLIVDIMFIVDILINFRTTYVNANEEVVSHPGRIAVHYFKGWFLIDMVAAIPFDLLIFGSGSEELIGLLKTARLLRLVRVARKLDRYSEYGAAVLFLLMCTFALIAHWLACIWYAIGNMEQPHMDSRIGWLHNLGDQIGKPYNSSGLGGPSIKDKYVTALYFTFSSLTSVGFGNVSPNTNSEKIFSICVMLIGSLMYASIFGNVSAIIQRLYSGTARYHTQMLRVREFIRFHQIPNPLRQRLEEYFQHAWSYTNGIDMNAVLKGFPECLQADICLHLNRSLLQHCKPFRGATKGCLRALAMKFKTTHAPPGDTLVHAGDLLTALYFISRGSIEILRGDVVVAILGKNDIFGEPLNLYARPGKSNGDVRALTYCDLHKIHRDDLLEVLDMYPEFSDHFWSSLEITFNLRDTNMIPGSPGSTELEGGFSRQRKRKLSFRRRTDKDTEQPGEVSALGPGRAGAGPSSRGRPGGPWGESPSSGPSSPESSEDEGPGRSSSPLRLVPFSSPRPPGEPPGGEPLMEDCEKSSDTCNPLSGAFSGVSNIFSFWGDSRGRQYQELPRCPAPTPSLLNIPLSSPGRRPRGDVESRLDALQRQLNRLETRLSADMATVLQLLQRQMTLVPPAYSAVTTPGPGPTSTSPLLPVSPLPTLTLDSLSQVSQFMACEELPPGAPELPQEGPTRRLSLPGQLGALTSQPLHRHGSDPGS

Chain of Cytochrome P450 2C9 (P11712 whole entry): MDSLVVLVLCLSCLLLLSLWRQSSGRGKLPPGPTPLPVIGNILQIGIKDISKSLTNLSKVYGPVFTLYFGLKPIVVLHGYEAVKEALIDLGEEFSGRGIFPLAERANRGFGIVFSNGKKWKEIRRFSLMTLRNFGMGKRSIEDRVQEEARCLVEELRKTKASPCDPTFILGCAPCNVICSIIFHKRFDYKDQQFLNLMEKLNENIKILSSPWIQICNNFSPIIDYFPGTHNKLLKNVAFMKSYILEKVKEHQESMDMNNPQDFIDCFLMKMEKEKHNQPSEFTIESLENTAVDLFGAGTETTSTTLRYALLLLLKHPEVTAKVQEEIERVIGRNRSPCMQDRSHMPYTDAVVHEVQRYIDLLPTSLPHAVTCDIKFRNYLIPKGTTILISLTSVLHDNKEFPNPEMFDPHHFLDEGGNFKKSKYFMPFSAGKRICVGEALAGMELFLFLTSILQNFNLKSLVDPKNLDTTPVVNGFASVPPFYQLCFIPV
Chain of Cytochrome P450 3A4 (P08684 whole entry): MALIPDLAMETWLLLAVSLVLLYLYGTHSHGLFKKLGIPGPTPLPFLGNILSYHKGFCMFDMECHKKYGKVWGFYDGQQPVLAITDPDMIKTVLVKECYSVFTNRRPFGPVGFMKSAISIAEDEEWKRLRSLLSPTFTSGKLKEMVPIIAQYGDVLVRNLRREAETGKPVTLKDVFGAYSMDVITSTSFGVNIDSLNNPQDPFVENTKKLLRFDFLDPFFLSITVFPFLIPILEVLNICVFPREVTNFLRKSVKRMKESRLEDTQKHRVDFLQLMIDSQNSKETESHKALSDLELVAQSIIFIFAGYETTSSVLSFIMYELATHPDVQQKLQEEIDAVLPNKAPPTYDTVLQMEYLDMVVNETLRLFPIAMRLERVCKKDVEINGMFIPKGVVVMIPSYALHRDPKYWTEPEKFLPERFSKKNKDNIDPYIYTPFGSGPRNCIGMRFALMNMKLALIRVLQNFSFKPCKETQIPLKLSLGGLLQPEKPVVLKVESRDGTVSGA
Chain of Cytochrome P450 2C19 (P33261 whole entry): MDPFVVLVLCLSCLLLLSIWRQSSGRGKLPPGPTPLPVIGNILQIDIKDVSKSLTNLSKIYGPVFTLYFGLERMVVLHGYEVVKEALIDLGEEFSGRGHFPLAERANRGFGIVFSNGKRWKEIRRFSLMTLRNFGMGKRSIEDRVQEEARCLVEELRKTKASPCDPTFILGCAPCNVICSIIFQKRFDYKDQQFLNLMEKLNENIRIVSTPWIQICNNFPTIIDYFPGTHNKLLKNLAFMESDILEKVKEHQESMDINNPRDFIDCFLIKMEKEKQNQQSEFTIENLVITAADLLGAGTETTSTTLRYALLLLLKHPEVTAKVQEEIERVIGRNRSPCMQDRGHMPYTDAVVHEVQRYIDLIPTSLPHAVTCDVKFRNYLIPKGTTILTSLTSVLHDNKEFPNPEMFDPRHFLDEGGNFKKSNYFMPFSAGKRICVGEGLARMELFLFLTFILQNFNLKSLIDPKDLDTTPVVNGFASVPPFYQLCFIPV
Chain of Cytochrome P450 2D6 (P10635 whole entry): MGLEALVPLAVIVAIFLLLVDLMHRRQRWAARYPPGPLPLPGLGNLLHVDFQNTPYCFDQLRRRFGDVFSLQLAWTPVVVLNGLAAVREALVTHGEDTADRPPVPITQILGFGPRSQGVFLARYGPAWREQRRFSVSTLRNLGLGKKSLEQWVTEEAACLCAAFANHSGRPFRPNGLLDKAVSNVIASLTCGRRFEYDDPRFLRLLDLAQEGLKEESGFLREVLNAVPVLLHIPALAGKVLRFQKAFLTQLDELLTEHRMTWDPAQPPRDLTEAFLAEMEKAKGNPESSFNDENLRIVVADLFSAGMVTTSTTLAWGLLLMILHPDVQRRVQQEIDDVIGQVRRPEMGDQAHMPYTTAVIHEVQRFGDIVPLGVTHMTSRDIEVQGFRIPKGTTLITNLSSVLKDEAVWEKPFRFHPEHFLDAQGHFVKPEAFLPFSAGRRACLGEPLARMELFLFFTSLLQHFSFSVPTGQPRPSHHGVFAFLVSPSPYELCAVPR

COc1cc(N)nc2[nH]c(-c3ccc(F)cc3)c(-c3ccncc3)c12
IC50 [1]: Not Active | Ki [1]: Not Active | IC50 [2]: Not Active | Ki [2]: Not Active | IC50 ([3]; cho-k1): Not Active | IC50 (Cytochrome P450 2C9): 1000 nM | IC50 (Cytochrome P450 2D6): 200 nM | IC50 (Cytochrome P450 3A4): 1000 nM | IC50 (Androgen receptor): Not Active

CO[C@H]1C[C@@H]2CC[C@@H](C)[C@@](O)(O2)C(=O)C(=O)N2CCCC[C@H]2C(=O)O[C@H]([C@H](C)C[C@@H]2CC[C@@H](O)[C@H](OC)C2)CC(=O)[C@H](C)/C=C(\C)[C@@H](O)[C@@H](OC)C(=O)[C@H](C)C[C@H](C)/C=C/C=C/C=C/1C [SIROLIMUS]
IC50 [1]: Not Active | Ki [1]: Not Active | IC50 [2]: Not Active | Ki [2]: Not Active | IC50 ([3]; cho-k1): Not Active | IC50 (Cytochrome P450 2C19): 4000 nM | IC50 (Cytochrome P450 2C9): 2000 nM | IC50 (Cytochrome P450 3A4): 2000 nM | IC50 (Androgen receptor): Not Active

C=C(C)[C@H]1Cc2c(ccc3c2O[C@@H]2COc4cc(OC)c(OC)cc4[C@@H]2C3=O)O1 [ROTENONE]
IC50 [1]: Not Active | Ki [1]: Not Active | IC50 [2]: Not Active | Ki [2]: Not Active | IC50 ([3]; cho-k1): Not Active | IC50 (Cytochrome P450 2C19): 3650 nM | IC50 (Androgen receptor): Not Active

OCCN1CCN(CCCN2c3ccccc3Sc3ccc(C(F)(F)F)cc32)CC1 [FLUPHENAZINE]
IC50 ([3]; read-out: IC50): 3470 nM | Ki ([3]; read-out: Ki): 484 nM | IC50 [4]: 5710 nM | Ki [4]: 4670 nM

COc1cc(C(=O)NS(=O)(=O)c2ccccc2C)ccc1Cc1cn(C)c2ccc(NC(=O)OC3CCCC3)cc12 [ZAFIRLUKAST]
IC50 [1]: Not Active | Ki [1]: Not Active | IC50 [2]: Not Active | Ki [2]: Not Active | IC50 ([3]; cho-k1): Not Active | IC50 (Cytochrome P450 2C9): 2260 nM
